{"source": "patent US20230332252A1", "about": "“CELL-FREE BIOSENSORS WITH DNA STRAND DISPLACEMENT CIRCUITS AND POLYMERASE STRAND RECYCLING (PSR)” (Northwestern University, priority 2021, published 2023)", "key": {"SmtB": {"target": "T1, SmtB (Synechococcus elongatus, UniProt P30340)", "T1 construct": "6xHis (C); made in house; host or cells: E. coli Rosetta 2(DE3)pLysS, pET-28c backbone (pJBL725)", "T1 sequence (P30340 with tags, fused parts or gaps)": "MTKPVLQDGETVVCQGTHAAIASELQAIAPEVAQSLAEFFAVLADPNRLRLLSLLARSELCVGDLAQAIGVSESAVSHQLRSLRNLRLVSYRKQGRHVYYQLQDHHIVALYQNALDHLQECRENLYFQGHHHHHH", "experiment": "SmtB-regulated in vitro transcription of InvadeR with TMSD fluorescence output", "format": "biochemical", "settings": "improved smtO-hairpin-InvadeR design, low background signal", "protocol": "(§1) In addition to TetR, we chose TtgR [44] and SmtB [45] as representative aTFs of the MarR family and SmtB/ArsR family, respectively. We placed the cognate operator sequence of each aTF 2-bp downstream of the T7 promoter and immediately upstream of the InvadeR sequences (FIG. 4a-c). When tetracycline was used to induce TetR-regulated reactions, we observed a strong and robust fluorescent signal visible in ˜10 minutes (FIG. 4d, FIG. 13a). […] We note that we observed a slight decrease in the induction speed from the TtgR-regulated reactions compared to that of the TetR-regulated reactions, likely due to the reduced ttgO DNA template concentration needed to accommodate TtgR's relatively weak binding affinity to its operator sequence.\nWe were immediately successful in adapting the system to TetR and TtgR (FIG. 4a, b). […]\n(§2) Regulated IVT reactions additionally included a purified aTF at the indicated concentration and were equilibrated at 37° C. for ˜10 minutes. Immediately prior to plate reader measurements, 2 ng of T7 RNAP and, optionally, a ligand at the indicated concentration were added to the reaction. Reactions were then characterized on a plate reader as described in Plate reader quantification and micromolar equivalent fluorescein (MEF) standardization."}, "TtgR": {"target": "T2, TtgR (Pseudomonas putida, UniProt Q88N29)", "T2 construct": "made in house; host or cells: E. coli Rosetta 2(DE3)pLysS, pET-28c backbone (pJBL721)", "T2 sequence (Q88N29 other isoform, or with tags, fused parts or gaps)": "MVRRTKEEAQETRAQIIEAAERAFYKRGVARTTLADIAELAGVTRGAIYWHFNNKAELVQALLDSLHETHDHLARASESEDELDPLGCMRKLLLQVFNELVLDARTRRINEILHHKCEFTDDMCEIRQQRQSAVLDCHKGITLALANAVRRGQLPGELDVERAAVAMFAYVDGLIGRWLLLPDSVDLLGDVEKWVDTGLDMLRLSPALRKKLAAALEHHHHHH", "experiment": "TtgR-regulated in vitro transcription of InvadeR with TMSD fluorescence output", "format": "biochemical", "settings": "TtgR-regulated reactions, with versus without ligand", "protocol": "as §1, §2"}, "TetR": {"target": "T3, TetR (Escherichia coli, UniProt P04483)", "T3 construct": "made in house; host or cells: E. coli Rosetta 2(DE3)pLysS, pET-28c backbone (pJBL701)", "experiment": "biochemical", "procedure": "To test if this spacing remained important in the TMSD platform, we used TetR as our model aTF to determine the optimum spacing for efficient repression in the presence of TetR and efficient transcription in the absence of TetR [41]. We used the native sequence that follows the canonical T7 RNAP promoter as a spacer in 2-bp increments from 0 to 10-bp, immediately followed by the tetO sequence and InvadeR sequence (FIG. 3a). IVT reactions were set up using 50 nM DNA template with or without purified recombinant TetR protein in 100-fold excess of the DNA template. […]\nUsing the 2-bp spacer, we next determined whether TetR can be de-repressed with its cognate ligand, anhydrotetracycline (aTc) to allow transcription of InvadeR (FIG. 3c). […]\nHomemade IVT reactions were set up by adding the following components listed at their final concentration: IVT buffer (40 mM Tris-HCl pH 8, 8 mM MgCl2, 10 mM DTT, 20 mM NaCl, and 2 mM spermidine), 11.4 mM NTPs pH 7.5, 0.3 U thermostable inorganic pyrophosphatase (#M0296S, New England Biolabs), transcription template, DNA gate(s) and MilliQ ultrapure H2O to a total volume of 20 μL. […] Immediately prior to plate reader measurements, 2 ng of T7 RNAP and, optionally, a ligand at the indicated concentration were added to the reaction."}}, "data": [{"compound": "O=S(=O)([O-])[O-].[Zn+2]", "note": "[ZnSO4]", "values": [{"measurement": "fluorescence activation by ligand", "setting": "SmtB", "result": "clear activation"}]}, {"compound": "O=C1C[C@@H](c2ccc(O)cc2)Oc2cc(O)cc(O)c21", "note": "[naringenin]", "values": [{"measurement": "fluorescence activation by ligand", "setting": "TtgR", "result": "robust fluorescence activation only in the presence of the ligand"}]}, {"compound": "Cc1c2c(c(O)c3c(O)cccc13)C(=O)[C@]1(O)C(=O)C(C(N)=O)=C(O)[C@@H](N(C)C)[C@@H]1C2", "note": "[aTc, anhydrotetracycline]", "values": [{"measurement": "EC50", "setting": "TetR", "result": "2.5 to 5", "unit": "µM"}]}]}
